Results as given in patent US11491155B2, “Salt of a pyrimido[6,1-A]isoquinolin-4-one compound” (VERONA PHARMA PLC, priority 2015, dated 2022).

Key:
[1] = Solubility of RPL554 salts in saline solutions, water and aqueous buffer solutions at 25° C. (HPLC); type: physicochemical; details: 24 hours
Description: The behaviour of salts of RPL554 were examined under the following conditions: • Phosphate buffered to pH 3.5 in saline, 0.9% w/w at 25° C. • Acetate buffered to pH 4.5 in saline, 0.9% w/w at 25° C. • Citro-Phosphate buffered to pH 4.5 in saline, 0.9% w/w at 25° C. • Phosphate buffered to pH 6.5 in saline, 0.9% w/w at 25° C. • Saline, 0.7, 0.9 and 1.1% w/w at 25° C. • Deionised water at 25° C.
RPL554 salts and RPL554, ca 50 mg, were suspended in the various aqueous media, 1 ml, with agitation at the specified temperatures for 24 hours. The solids were isolated and dried in vacuo at 45° C. The retained filtrates were examined by HPLC.
Additional RPL554 methane sulfonate salt, ca 50 mg, was charged to the water mixtures at 25° C. and 37.5° C. in order to afford a suspension. In all other cases, suspensions were obtained.
The solubility of the RPL554 was determined by HPLC using a single point calibration and is expressed as RPL554 and not as the salt and are detailed in Table 6 and Table 7 for the various conditions utilised.

[2] = Intrinsic dissolution of compressed tablet, pH 7.0, 37° C. (Sirius inForm); type: physicochemical; details: pH 7.0, 0.15 M NaCl, 37° C.; listed as p-toluenesulfonate salt
Description: The dissolution assay (pH-dependent sample dissolution) was investigated using the Sirius inForm.
Dissolution of a compressed tablet of the compound was monitored in a pH 7.0 aqueous dissolution experiment (0.15 M NaCl) at 37° C. using UV-absorption spectroscopy in 2 hour experiments. A tablet with a diameter of 3 mm, requiring approximate weights of 10 mg was compressed under a weight of 100 kg load force. Only one face of the tablet was exposed to the dissolution medium, which contained a 0.01 M acetate/phosphate buffer system to minimise perturbation of the experimental pH from dissolution of the drug.
Stirring of the solution was continuous and at a constant rate of 100 rpm. The absorption data was converted to absolute sample weights using previously determined, pH-dependent, molar extinction coefficients. An appropriate wavelength range was chosen to ensure that spectroscopic data with an absorption value of <1.3 was analysed, avoiding erroneous dissolution results due to saturation of the UV light source.

[3] = Primary particle size analysis by laser light diffraction (Mastersizer 2000); type: physicochemical; details: micronised, mean n=3
Description: A Mastersizer 2000 fitted with a Scirocco 2000 dry powder dispersion unit (Malvern Instruments Ltd, UK) was used to analyse the primary particle size of the micronised RPL554 and salt variants. The salts (50 mg) were automatically sampled via a vibrating feed control at a feeder rate of 60% and dispersed in compressed air at a pressure of 3 bar.

[4] = Solubility of RPL554 and salts in pMDI propellant systems; type: physicochemical
Description: Quantitative assessment of the solubility of RPL554 and salt variants in the propellant systems of selected pMDI formulations (three replicates of each formulation) was performed. pMDIs were directly coupled to an adaptor fitted with a 0.20 μm filter unit connected, in series to a 21 G needle, which was inserted via a rubber septum, into a cooled multi-dose glass vial. A 19 G filter needle was inserted through the septum to aid evaporation of propellant from the vial. Prior to the filtration process the vial was cooled in a mixture of dry ice and acetone to ensure that the pressure within the vial was reduced in order to facilitate collection of the output from the pMDI. Ten consecutive actuations of the pMDI were fired through the filter and collected in the vial. Between actuations the canister was shaken for approximately 10 seconds. The pMDI unit was weighed before and after the filtering procedure. The filtrate was stored at room temperature and allowed to evaporate to dryness.
Samples were recovered by carefully rinsing the inside of the vials with 1 mL of recovery solution before transfer to HPLC vials for analysis. The estimated % of RPL554 solubilised within the canister was calculated from the starting mass of RPL554 within the canisters, which in turn was calculated using the theoretical molecular weight values of the RPL554 free base and salt variants shown in Table 13. The theoretical molecular weight estimates of the salts were provided by Verona.

[5] = RPL554 content and content uniformity of 1% w/w lactose powder blends; type: physicochemical
Description: Batches (approximately 5 g) of 1% w/w RPL554 free base or salt variants: lactose blends were prepared. In brief, the RPL554 free base or salt plus a small quantity of lactose was passed through a 38 μm sieve. The sieved material plus the remaining lactose was mixed in a glass mortar prior to transfer to a stainless steel screw cap jar and further mixing (10 minutes at 46 rpm) conducted using a Turbula blender. The composition of the dry powder blend was 0.05 g API and 4.95 g lactose.
In order to determine the content uniformity of the blends, aliquots (approx. 20 mg) of powder were sampled from each blend, accurately weighed, and diluted to volume in 10 mL volumetric flasks with diluent. The flasks were sonicated for 3 minutes before samples were transferred to HPLC vials for analysis.

[6] = Aerosol performance of DPI formulations (Cyclohaler, NGI); type: physicochemical
Description: Capsules were hand filled with 20 mg of the 1% w/w RPL554 free base or salt variants: lactose blends, i.e. 200 μg salt per capsule, the fill weight of each capsule was recorded. Due to differences in the molecular weights of the RPL554 salt forms, the amount of RPL554 emitted per actuation varied as a function of molecular weight. The formulations were prepared with no adjustment for differences in molecular weight of the salts.
The powders were delivered via the Cyclohaler® DPI (PCH Pharmachemie, BV, The Netherlands). The Cyclohaler® DPI is a low resistance device and was operated at a flow rate of 90 L/min for 2.7 seconds. The cut off diameters for the NGI collection stages were calculated for the 90 L/min flow rate using the NGI User Guide (MSP Corporation, 2008).
The ED, FPD and FPF were determined from inertial impaction tests performed following the deposition of 5 capsules of each formulation into the NGI. For each capsule tested the combined weight of the Cyclohaler® and capsule was determined before and after operation to check that the dose had been delivered. The NGI was fitted with a pre-separator for these determinations. The central cup of the pre-separator was filled with 15 mL of diluent. Following deposition, the solution was recovered in a 20 mL volumetric flask and made up to volume with diluent. RPL554 was quantitatively recovered from the device, induction port and each of the NGI collection stages with 10 mL of diluent.
The volume of diluent used for each sample was selected to ensure RPL554 concentrations were above the limit of quantitation.

[7] = Physico-chemical characteristics of salt candidates: solubility in water, pH of aqueous suspension/solution, form post water maturation; details: listed as p-Toluene sulfonic
Description: The physico-chemical characteristics of the salt candidates were determined.

COc1cc2c(cc1OC)-c1c/c(=N\c3c(C)cc(C)cc3C)n(CCNC(N)=O)c(=O)n1CC2 [p-Toluenesulfonate, RPL554 p-toluenesulfonate]
Solubility as RPL554 (mg/ml) in 0.7 w/w % Saline [1]: 0.83 mg/mL | Solubility as RPL554 (mg/ml) in 0.9 w/w % Saline [1]: 0.62 mg/mL | Solubility as RPL554 (mg/ml) in 1.1 w/w % Saline [1]: 0.8 mg/mL | Solubility as RPL554 (mg/ml) in Water ([1]; deionised water): 1.01 mg/mL | Mass of salt (μg) dissolved after 2 hours, Average [2]: 61.6 µg | Mass of salt (μg) dissolved after 2 hours, Test 1 [2]: 51.2 µg | Mass of salt (μg) dissolved after 2 hours, Test 2 [2]: 71.9 µg | D (0.1) (μm) [3]: 0.47 μm | D (0.5) (μm) [3]: 1.34 μm | D (0.9) (μm) [3]: 4.53 μm | Calculated RPL554 solubilised (%) ([4]; in HFA 134): 0.08% | Calculated Solubilised RPL554 μg per 50 μL actuation ([4]; in HFA 134): 0.11 µg | Solubility RPL554 ([4]; in HFA 134, BLQ = below limit of quantitation (0.06 μg/mL)): 1.56 µg/g | Solubility RPL554 (μg/g) ([4]; in HFA 134, BLQ = below limit of quantitation (0.06 μg/mL), listed as p-toluensulfonate): quantifiable levels of solubility | Estimated RPL554 solubilised (%) ([4]; in HFA 134 with Ethanol/Tween): 7.20% | Estimated Solubilised RPL554 μg per 50 μL actuation ([4]; in HFA 134 with Ethanol/Tween): 10.58 µg | Solubility RPL554 ([4]; in HFA 134 with Ethanol/Tween): 152.85 µg/g | Calculated RPL554 solubilised (%) ([4]; in HFA 227): BLQ | Calculated Solubilised RPL554 μg per 50 μL actuation ([4]; in HFA 227): BLQ | Solubility RPL554 (μg/g) ([4]; in HFA 227): BLQ | Measured Blend Content (% Theoretical) ([5]; 1% w/w RPL554 variant: lactose powder blend, expressed as RPL554 base): 88.66 % Theoretical | **Adjusted RPL554 Content per capsule ([5]; per 20 mg capsule of 1% w/w lactose blend, adjusted for measured blend content (% theoretical), as RPL554 base): 130.33 µg | †Measured Mass of 1% w/w Blend Delivered per capsule ([6]; Cyclohaler, 5 capsules containing 20 mg powder blend, mass from weight change of capsule-loaded device): 20.02 mg | ††RPL554 Emitted (μg) per capsule (B) ([6]; Cyclohaler, NGI, mass determined from HPLC analysis of recovered samples, as RPL554 base): 86.84 µg | Calculated RPL554 Content (μg) per capsule (A) ([6]; calculated from delivered blend mass and measured blend content, as RPL554 base): 130.46 µg | pH of aqueous suspension/solution [7]: 3.40
